We go through 8 molecules from paper PMC5428777, “Molecular Characteristics and Serodiagnostic Potential of Dihydrofolate Reductase from Echinococcus granulosus” (Scientific Reports, 2017).

The target of series [1] is T1, rEg-DHFR (Echinococcus granulosus, UniProt U6JJS2).
T1 sequence (U6JJS2 1-191): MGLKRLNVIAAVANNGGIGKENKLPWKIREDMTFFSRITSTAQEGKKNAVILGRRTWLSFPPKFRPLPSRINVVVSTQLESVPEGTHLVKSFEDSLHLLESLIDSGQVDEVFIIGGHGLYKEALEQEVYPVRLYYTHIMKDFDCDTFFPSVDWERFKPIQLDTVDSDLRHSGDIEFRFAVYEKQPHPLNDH
The experiment in a line: Enzyme kinetics of rEg-DHFR towards substrate DHF (Michaelis-Menten fit). In kind it is biochemical. The conditions noted are these: 0-120 μM DHF, 60 μM NADPH, 22 °C.

Series [2] deals with T1, rEg-DHFR. The experiment in a line: Inhibition of rEg-DHFR enzyme activity by antifolates (DHFR assay kit, absorbance 340 nm). In kind it is biochemical. As to the method: The temperature was controlled at 22 °C.
The IC50 was calculated using GraphPad Prism software by nonlinear curve-fitting.

In series [3] the test system is E. granulosus protoscoleces (PSCs). Briefly: microbe, parasite or virus in culture. In kind it is cell-based, Echinococcus granulosus. The conditions noted are these: for effect on PSCs (protoscolex viability): all three concentrations tested. On the procedure:
Cysts of E. granulosus were obtained from a slaughterhouse in Qinghai Province, China. The PSCs were separated in sterile conditions and washed three times in phosphate-buffered saline (PBS). Rinsed PSCs were diluted to a concentration of 1,500 mL^−1 and maintained as previously described, [47]. Briefly, PSCs were cultured in RPMI 1640 medium (Hyclone) with 10% fetal bovine serum (Hyclone), 10% hydatid fluid, 100 U.mL^−1 penicillin G and 100 μg.mL^−1 streptomycin (Sigma, USA). Adult worms were collected from the small intestine of a 2-month-old dog 35 days post-infection with 20,000 PSCs. A 5-month-old dog and two 9-week-old female New Zealand white rabbits were obtained from the Laboratory Animal Center of Sichuan Agricultural University. All animals were provided with food pellets and sterilised water ad libitum.
[…]. PSCs incubated with only assay buffer (DHFR assay kit; Sigma) or DMSO were used as negative controls. The vitality of protoscoleces was assessed using a Trypan Blue exclusion test[50], [51]. The daily percentages of PSCs vitality were calculated on six microscopic fields covering approximately 10–20 PSCs. The effect of per drug concentration was monitored in triplicate and in two separate trials.

Series [4] shares this test system. The arrangement: method as in PMID 11133110. The conditions noted are these: positive control; ref [30]; cited from earlier work.
Substrate in series [5]: Nc1nc2c(c(=O)[nH]1)N=C(CNc1ccc(C(=O)N[C@@H](CCC(=O)O)C(=O)O)cc1)CN2
The experiment in a line: purified protein, by the assay type. The conditions noted are these: other: 0-120 μM DHF, 60 μM NADPH, 22 °C.

Where [6] appears, read: 50 μM dihydrofolic acid, 60 μM NADPH, mean ± SD, read-out: IC50 for rEg-DHFR.

Like-named read-outs stand apart in the source and are kept apart here.

Take `Nc1nc2c(c(=O)[nH]1)N=C(CNc1ccc(C(=O)N[C@@H](CCC(=O)O)C(=O)O)cc1)CN2` [DHF, 7,8-dihydrofolate]: at rEg-DHFR [1], the “Vmax of rEg-DHFR for substrate DHF” value was 2.384 ± 0.01874 µmol/min/mg.

As for `COc1cc(Cc2cnc(N)nc2N)cc(OC)c1OC` [Trimethoprim, trimethoprim], the IC50 on rEg-DHFR [2] (setting [6]) is 30800 ± 2090 nM. In series [3] (Echinococcus granulosus, 168 h, read-out: PSCs remaining viable in culture), the viability at 3000 µM came out at 38.7 ± 6.18%.

Turning to `O=C(C1CCCCC1)N1CC(=O)N2CCc3ccccc3C2C1` (stereo not drawn) [Praziquantel], the protoscolicidal activity result in series [4] was “exhibit protoscolicidal activity”. In the case of `Nc1nc(N)c2nc(CNc3ccc(C(=O)N[C@@H](CCC(=O)O)C(=O)O)cc3)cnc2n1` [Aminopterin, aminopterin], the half-inhibitory concentration (IC50) on rEg-DHFR [2] was 63.7 ± 6.76 nM. Besides, the “effect on PSCs (protoscolex viability)” value in series [3] (after 7 days of incubation) is “slight effect”. On to `CCc1nc(N)nc(N)c1-c1ccc(Cl)cc1` [Pyrimethamine, pyrimethamine], for which the IC50 at rEg-DHFR [2] (setting [6]) was found to be 860 ± 93.5 nM. Further, in series [3] (800 μM, after 7 days of incubation, control 82.65 ± 6.11%), the “percentage vitality of PSCs” value worked out at 20.67 ± 2.49%. With `CN(Cc1cnc2nc(N)nc(N)c2n1)c1ccc(C(=O)N[C@@H](CCC(=O)O)C(=O)O)cc1` [Methotrexate, methotrexate], the “effect on PSCs (protoscolex viability)” value in series [3] (after 7 days of incubation) was “slight effect”.

B1: human DHFR (Homo sapiens) (protein)
chain: MVGSLNCIVAVSQNMGIGKNGDLPWPPLRNEFRYFQRMTTTSSVEGKQNLVIMGKKTWFSIPEKNRPLKGRINLVLSRELKEPPQGAHFLSRSLDDALKLTEQPELANKVDMVWIVGGSSVYKEAMNHPGHLKLFVTRIMQDFESDTFFPEIDLEKYKLLPEYPGVLSDVQEEKGIKYKFEVYEKND
With B1, in series [5], the Km turned out to be 14.61 ± 0.6590 µM and the Vmax is 3.370 ± 0.02327 µmol/min/mg.

B2: rEg-DHFR (Echinococcus granulosus) (protein)
chain: T1 sequence (U6JJS2 1-191)
Turning to B2, in series [5], the Michaelis-Menten constant (Km) worked out at 18.74 ± 0.5651 µM.

What is called IC50 is the midpoint of a concentration-inhibition curve. By Km is commonly meant the concentration of substrate that gives half-maximal velocity. Broadly, the Vmax is the rate approached at saturating substrate.
